Values quoted from earlier work in US11253534B2, “Method of preventing COVID-19 infection” (priority 2020, dated 2022).

Conditions: in vivo

For `CCN(CCO)CCCC(C)Nc1ccnc2cc(Cl)ccc12` (stereo not shown) [hydroxychloroquine], the half-life is listed as “up to 32 days”.
